Test results taken from ChEMBL document CHEMBL5291721, “A preclinical secondary pharmacology resource illuminates target-adverse drug reaction associations of marketed drugs” (Nat Commun, 2023).

Columns and labels:
[1] = molecular target: Sodium-dependent noradrenaline transporter (Homo sapiens, UniProt P23975)
[2] = molecular target: T1, Cholecystokinin receptor type A (Homo sapiens, UniProt P32238)
T1 sequence (P32238 whole entry): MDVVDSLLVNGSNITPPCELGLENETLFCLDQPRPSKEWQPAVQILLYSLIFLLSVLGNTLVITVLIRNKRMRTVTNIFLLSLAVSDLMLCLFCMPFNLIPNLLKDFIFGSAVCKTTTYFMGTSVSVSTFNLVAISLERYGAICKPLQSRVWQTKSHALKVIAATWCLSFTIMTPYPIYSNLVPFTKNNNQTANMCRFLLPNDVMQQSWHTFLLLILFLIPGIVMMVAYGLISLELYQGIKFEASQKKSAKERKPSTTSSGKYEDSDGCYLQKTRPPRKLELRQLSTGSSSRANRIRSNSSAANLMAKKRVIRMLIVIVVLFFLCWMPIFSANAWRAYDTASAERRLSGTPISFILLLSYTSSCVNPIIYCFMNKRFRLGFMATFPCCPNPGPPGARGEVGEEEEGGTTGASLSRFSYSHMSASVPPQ

Bile salt export pump = Bile salt export pump (Homo sapiens, UniProt O95342); type: functional
[3] = molecular target: Voltage-gated inwardly rectifying potassium channel KCNH2 (Homo sapiens, UniProt Q12809); type: functional; settings: read-out: AC50
Voltage-gated inwardly rectifying potassium channel KCNH2, sequence (Q12809 whole entry): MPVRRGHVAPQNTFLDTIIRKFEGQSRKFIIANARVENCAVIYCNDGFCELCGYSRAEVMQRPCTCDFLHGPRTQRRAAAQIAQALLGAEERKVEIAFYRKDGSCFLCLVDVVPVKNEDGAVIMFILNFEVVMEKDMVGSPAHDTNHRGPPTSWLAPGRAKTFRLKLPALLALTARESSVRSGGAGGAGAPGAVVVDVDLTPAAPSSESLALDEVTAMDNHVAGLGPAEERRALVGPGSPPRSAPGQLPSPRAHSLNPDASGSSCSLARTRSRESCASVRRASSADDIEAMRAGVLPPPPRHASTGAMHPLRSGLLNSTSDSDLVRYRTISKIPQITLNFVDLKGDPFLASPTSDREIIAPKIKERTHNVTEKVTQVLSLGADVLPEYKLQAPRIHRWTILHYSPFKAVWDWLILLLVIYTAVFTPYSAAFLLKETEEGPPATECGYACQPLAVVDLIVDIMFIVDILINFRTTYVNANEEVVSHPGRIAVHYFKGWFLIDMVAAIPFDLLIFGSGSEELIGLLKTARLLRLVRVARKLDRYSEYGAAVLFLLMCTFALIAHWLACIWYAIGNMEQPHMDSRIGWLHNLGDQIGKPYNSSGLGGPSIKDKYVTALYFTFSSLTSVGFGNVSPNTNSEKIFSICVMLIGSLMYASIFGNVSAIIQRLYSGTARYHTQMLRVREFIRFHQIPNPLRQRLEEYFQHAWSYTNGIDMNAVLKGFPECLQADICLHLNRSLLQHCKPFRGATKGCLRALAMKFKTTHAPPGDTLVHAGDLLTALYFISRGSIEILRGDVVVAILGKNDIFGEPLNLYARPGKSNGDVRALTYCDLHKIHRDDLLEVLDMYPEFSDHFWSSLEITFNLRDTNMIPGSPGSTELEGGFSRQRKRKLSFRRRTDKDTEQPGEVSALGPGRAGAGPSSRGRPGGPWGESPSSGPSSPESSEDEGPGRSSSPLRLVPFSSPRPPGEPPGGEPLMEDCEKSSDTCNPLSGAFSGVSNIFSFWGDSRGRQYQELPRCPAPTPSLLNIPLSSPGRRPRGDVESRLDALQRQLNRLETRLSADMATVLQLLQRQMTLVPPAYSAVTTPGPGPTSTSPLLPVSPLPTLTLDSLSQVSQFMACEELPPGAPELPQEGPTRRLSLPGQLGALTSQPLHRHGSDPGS

Adenosine receptor A1 = molecular target: T2, Adenosine receptor A1 (Homo sapiens, UniProt P30542)
T2 sequence (P30542 whole entry): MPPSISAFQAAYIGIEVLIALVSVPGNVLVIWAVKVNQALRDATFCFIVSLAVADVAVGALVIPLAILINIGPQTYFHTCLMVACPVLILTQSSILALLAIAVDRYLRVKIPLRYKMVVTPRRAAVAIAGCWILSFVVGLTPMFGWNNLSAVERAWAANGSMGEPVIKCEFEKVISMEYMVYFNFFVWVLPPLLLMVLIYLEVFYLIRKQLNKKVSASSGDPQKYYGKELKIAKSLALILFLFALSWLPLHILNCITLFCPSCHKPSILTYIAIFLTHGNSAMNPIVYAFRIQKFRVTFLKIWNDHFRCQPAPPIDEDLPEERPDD

D(3) dopamine receptor = D(3) dopamine receptor (Homo sapiens, UniProt P35462)
D(3) dopamine receptor, sequence (P35462 whole entry): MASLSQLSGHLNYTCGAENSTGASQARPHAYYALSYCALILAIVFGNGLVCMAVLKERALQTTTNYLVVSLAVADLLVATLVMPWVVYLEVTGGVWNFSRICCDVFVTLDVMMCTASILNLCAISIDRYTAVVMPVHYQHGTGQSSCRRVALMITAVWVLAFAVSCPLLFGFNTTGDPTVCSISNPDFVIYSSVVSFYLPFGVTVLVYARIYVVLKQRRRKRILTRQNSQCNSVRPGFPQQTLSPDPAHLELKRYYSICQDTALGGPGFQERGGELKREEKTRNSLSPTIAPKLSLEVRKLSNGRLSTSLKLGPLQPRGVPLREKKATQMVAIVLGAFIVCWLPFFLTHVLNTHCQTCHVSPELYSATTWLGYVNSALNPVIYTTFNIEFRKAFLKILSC

[4] = molecular target: T3, Prostaglandin G/H synthase 1 (Rattus norvegicus, UniProt Q63921); type: functional
T3 sequence (Q63921 whole entry): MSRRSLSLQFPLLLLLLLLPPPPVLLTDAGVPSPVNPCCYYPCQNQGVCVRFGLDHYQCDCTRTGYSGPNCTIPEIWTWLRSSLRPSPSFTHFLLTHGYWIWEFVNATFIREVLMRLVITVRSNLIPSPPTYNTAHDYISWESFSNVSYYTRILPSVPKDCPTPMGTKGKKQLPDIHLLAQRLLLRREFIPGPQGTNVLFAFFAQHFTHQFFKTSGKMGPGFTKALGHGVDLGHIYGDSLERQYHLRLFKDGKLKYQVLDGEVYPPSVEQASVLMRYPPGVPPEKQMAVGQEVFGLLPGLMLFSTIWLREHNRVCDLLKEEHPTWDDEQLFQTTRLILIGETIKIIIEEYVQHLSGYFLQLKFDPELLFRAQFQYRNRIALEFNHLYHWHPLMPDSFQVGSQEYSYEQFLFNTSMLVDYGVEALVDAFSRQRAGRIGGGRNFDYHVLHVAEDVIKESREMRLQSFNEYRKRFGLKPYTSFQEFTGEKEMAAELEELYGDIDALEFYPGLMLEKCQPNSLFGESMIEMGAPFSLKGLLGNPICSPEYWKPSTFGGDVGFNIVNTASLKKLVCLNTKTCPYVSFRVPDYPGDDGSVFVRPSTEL

[5] = molecular target: Delta-type opioid receptor (Homo sapiens, UniProt P41143)
Delta-type opioid receptor, sequence (P41143 whole entry): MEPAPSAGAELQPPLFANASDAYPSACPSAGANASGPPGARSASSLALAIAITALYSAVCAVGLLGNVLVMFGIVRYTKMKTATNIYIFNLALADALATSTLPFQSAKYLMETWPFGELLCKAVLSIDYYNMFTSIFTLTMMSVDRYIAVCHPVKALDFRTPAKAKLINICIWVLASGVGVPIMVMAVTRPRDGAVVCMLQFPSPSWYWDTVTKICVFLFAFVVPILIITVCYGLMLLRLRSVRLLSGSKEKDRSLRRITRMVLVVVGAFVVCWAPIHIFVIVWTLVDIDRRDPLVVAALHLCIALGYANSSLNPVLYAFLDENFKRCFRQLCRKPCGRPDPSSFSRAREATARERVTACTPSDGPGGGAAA

[6] = molecular target: T4, 5-hydroxytryptamine receptor 3A (Homo sapiens, UniProt P46098); type: functional
T4 sequence (P46098 whole entry): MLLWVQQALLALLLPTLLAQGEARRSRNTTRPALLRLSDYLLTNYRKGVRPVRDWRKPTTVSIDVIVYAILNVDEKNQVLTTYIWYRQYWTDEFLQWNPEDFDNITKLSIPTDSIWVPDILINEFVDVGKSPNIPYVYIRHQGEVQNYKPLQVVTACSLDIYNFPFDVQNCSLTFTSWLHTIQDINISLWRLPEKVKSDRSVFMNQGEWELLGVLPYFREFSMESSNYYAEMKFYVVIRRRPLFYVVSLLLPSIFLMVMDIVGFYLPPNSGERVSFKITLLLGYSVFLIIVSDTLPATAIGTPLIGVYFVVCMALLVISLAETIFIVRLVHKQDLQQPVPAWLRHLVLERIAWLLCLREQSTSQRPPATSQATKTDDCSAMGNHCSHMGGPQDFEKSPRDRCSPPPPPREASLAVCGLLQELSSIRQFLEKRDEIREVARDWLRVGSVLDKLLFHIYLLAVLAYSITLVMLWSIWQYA

[7] = molecular target: 5-hydroxytryptamine receptor 2B (Homo sapiens, UniProt P41595); type: functional, cell-based
5-hydroxytryptamine receptor 2B, sequence (P41595 whole entry): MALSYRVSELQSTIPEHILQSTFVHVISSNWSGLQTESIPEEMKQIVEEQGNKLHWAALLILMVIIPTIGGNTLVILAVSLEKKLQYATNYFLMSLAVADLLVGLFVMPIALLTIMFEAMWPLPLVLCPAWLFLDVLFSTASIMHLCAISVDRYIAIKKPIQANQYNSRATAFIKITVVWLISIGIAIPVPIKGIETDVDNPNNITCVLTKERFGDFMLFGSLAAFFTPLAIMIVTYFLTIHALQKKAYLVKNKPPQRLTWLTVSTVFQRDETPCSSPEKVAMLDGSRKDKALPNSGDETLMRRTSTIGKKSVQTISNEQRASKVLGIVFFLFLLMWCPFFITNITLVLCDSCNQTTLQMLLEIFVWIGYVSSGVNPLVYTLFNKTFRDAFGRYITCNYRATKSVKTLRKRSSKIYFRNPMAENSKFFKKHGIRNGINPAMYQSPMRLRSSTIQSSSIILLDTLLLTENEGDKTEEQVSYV

[8] = molecular target: T5, Alpha-2A adrenergic receptor (Homo sapiens, UniProt P08913); type: functional, cell-based
T5 sequence (P08913 whole entry): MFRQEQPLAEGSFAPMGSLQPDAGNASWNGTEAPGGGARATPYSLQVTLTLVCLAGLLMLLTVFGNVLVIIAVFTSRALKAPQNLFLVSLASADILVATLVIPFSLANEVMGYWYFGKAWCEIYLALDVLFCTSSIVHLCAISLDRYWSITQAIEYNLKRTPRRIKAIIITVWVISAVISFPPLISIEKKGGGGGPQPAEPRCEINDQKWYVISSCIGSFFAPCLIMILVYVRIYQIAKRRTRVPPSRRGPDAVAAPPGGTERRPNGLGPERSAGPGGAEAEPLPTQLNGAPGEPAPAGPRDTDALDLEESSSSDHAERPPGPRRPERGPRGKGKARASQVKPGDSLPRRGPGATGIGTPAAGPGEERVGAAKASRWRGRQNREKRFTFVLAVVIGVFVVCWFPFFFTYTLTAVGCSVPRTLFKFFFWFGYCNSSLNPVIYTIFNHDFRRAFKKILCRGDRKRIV

[9] = molecular target: Neuronal acetylcholine receptor subunit alpha-4 (Homo sapiens, UniProt P43681)
Neuronal acetylcholine receptor subunit alpha-4, sequence (P43681 whole entry): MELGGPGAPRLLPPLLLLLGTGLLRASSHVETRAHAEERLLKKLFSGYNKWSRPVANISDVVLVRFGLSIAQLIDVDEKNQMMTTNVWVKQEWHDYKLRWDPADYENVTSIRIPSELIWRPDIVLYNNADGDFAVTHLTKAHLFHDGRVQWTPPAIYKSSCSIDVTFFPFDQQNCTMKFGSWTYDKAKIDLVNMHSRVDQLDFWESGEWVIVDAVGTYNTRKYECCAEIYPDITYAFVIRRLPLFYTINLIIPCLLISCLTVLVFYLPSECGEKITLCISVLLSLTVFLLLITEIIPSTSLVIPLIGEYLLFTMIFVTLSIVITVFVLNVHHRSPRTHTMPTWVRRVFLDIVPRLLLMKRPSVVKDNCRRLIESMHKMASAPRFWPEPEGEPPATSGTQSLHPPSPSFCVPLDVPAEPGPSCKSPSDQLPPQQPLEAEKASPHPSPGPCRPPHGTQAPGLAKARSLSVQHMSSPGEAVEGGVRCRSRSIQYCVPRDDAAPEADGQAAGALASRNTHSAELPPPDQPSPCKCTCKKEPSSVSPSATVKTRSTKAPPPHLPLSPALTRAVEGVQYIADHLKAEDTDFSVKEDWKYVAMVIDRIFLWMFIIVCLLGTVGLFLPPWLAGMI

[10] = molecular target: Growth hormone secretagogue receptor type 1 (Homo sapiens, UniProt Q92847)
Growth hormone secretagogue receptor type 1, sequence (Q92847 whole entry): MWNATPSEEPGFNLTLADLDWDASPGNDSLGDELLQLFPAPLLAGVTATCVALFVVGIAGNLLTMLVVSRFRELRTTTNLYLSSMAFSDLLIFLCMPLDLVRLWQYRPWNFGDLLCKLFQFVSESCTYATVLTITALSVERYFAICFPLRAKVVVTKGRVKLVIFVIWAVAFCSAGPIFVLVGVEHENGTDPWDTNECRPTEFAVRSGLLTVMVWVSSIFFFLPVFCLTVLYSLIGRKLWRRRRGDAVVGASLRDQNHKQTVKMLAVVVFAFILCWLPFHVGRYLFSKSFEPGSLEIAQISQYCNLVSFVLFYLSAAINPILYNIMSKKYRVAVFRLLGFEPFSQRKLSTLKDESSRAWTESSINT

[11] = molecular target: 3',5'-cyclic-AMP phosphodiesterase 4D (Homo sapiens, UniProt Q08499); type: functional
3',5'-cyclic-AMP phosphodiesterase 4D, sequence (Q08499 whole entry): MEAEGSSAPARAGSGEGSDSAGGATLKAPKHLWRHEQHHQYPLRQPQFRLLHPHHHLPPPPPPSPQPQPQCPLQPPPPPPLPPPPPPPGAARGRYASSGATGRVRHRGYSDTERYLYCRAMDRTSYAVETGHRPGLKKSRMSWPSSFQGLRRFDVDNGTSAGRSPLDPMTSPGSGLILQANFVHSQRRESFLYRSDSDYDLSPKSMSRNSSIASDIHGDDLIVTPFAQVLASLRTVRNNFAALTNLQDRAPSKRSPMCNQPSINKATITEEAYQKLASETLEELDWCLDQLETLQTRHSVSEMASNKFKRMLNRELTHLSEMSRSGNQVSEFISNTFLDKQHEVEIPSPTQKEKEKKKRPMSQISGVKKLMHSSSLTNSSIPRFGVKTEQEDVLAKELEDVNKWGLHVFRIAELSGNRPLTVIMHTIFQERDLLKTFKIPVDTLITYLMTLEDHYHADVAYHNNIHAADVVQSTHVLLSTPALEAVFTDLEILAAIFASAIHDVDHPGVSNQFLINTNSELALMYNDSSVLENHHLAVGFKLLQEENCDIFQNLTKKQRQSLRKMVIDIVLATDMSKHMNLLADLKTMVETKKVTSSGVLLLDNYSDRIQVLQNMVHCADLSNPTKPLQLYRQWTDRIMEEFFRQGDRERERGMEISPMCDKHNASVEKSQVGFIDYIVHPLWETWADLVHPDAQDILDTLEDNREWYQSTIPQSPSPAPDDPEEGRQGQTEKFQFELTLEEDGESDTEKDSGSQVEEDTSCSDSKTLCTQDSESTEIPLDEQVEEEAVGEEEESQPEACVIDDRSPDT
Further: assay procedure not described here.

Sodium-dependent noradrenaline transporter, sequence (P23975 whole entry): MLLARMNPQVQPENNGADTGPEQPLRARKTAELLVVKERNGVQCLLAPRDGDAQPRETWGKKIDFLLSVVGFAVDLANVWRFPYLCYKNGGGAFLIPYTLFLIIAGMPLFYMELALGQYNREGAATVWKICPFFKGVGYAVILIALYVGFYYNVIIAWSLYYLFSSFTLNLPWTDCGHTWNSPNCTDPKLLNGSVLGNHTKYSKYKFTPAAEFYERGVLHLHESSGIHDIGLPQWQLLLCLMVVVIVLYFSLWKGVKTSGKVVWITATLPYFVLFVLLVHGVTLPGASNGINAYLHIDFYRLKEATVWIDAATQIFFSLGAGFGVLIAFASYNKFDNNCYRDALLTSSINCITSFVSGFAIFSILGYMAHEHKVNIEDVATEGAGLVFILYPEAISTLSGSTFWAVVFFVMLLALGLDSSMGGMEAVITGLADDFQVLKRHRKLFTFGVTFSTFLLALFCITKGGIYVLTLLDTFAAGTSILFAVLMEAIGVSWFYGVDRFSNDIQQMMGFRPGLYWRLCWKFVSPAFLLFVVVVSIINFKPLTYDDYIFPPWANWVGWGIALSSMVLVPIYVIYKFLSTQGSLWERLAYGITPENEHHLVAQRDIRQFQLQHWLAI

Structure (SMILES)	AC50 [1] [µM]	AC50 [2] [µM]	AC50 (Bile salt export pump) [µM]	AC50 [3] [µM]	AC50 (Adenosine receptor A1) [µM]	AC50 (D(3) dopamine receptor) [µM]	AC50 [4] [µM]	AC50 [5] [µM]	AC50 [6] [µM]	AC50 [7] [µM]	AC50 [8] [µM]	AC50 [9] [µM]	AC50 [10] [µM]	AC50 [11] [µM]
Cc1c(C)c2c(c(C)c1O)CCC(C)(COc1ccc(CC3SC(=O)NC3=O)cc1)O2 (stereo unspecified) [TROGLITAZONE]	15	> 30	5.01	> 30	> 30	> 30	22.9	> 30	> 30	2	> 30	> 30	> 30	2.88
C=CC1=C(C(=O)O)N2C(=O)[C@@H](NC(=O)/C(=N\O)c3csc(N)n3)[C@H]2SC1	> 30	> 30	> 300	> 30	> 30	> 30	> 30	> 30	> 30	> 10	> 10	> 10	> 30	> 30
CCC1(c2ccccc2)C(=O)NCNC1=O [PRIMIDONE]	> 10	> 10	> 300	> 30	> 10	> 30	> 10	> 30	> 30	> 10	> 10	> 10	> 10	> 30
CCOCC(O)COc1ccc(NC(=O)CC[S+](C)C)cc1 (stereo unspecified)	> 30	> 30	> 300	> 30	> 30	> 30	> 30	> 30	> 30	> 30	> 30	> 30	> 30	> 30
